Assays:
Assay type in all cases: binding
ADRA2B = target: T1, ADRA2B (Homo sapiens, UniProt P18089); experiment: NanoBRET screen HiBiT-ADRA2B in HEK293
T1 construct: purchased Promega (in-house HiBiT-GPCR construct library, NanoBRET)
T1 sequence (P18089 1-450): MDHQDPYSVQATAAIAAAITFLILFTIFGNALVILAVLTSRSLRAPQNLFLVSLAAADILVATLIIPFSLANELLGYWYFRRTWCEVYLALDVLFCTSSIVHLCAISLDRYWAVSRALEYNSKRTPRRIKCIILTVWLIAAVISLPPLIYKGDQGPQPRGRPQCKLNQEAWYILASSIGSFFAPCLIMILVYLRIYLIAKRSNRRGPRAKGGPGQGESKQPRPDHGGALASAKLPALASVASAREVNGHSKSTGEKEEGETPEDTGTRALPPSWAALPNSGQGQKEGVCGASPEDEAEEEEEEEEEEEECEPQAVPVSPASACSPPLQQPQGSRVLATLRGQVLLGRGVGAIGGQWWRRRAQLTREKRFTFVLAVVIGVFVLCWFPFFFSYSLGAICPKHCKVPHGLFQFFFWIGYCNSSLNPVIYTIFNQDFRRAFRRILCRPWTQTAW

C5AR2 = target: T2, C5AR2 (Homo sapiens, UniProt Q9P296); experiment: NanoBRET screen HiBiT-C5AR2 in HEK293
T2 construct: purchased Promega (in-house HiBiT-GPCR construct library, NanoBRET)
T2 sequence (Q9P296 whole entry): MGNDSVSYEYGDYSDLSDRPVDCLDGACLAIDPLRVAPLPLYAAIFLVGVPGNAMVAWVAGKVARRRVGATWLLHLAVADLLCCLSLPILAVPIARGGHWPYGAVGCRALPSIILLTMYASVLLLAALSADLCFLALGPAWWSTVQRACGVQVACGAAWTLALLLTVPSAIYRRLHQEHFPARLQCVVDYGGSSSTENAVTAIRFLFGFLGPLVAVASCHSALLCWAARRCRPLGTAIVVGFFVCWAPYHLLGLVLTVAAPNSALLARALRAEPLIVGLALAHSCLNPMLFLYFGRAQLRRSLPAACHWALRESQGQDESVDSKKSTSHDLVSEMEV
Description: (§1) Each tracer candidate was screened across the entire library of HiBiT-GPCR constructs using NanoBRET as the detection modality. As depicted in Figure 4A, the specificity of interactions was evaluated through decrease in BRET due to competitive displacement of a bound tracer by excess parental compound. Each tracer was analyzed for binding to each HiBiT-GPCR fusion in the absence and in the presence of competing parental compound. Briefly, HEK293 cells were transfected with HiBiT-GPCR constructs diluted into promoterless DNA to reduce expression and maximize translocation to the cell surface. Each tracer candidate was then screened at concentrations of 1 μM and 0.1 μM across cells expressing these fusions. Cells were treated for 1.5 h with tracer either alone or in the presence of 20 μM competing parental compound (i.e., control). BRET was measured upon addition of purified LgBiT and subsequent complementation with HiBiT genetically fused to a GPCR. The specificity of interactions was assessed through a decrease in BRET signal due to competitive displacement of the bound tracer. To further gauge the robustness of these interactions, the fold response over the control (i.e., BRETtracer/BRETcontrol) was calculated. We chose a 1.5-fold response, which translates to ≥7-fold signal over noise as the minimal threshold required to score an interaction as positive. […]. Below we highlight the screening results obtained for our exemplary fluorescent tracers based on Clozapine, Amitriptyline and AZD1283.
(§2) HiBiT-GPCR DNA constructs were diluted in 10 mM Tris pH 8 to a final concentration of 0.01 μg/μL, arrayed in 96-well plates and stored at −20 °C. For transfection, HEK293 cells were suspended in Opti-MEM (without phenol red) supplemented with 2% fetal bovine serum (Seradigm) and 100 units/mL penicillin–streptomycin (Gibco) at a final concentration of 220,000 cells/mL and dispensed into white 96-well plates at 90 μL/well. Subsequent transfections and screens were carried using an Agilent Bravo Automated Liquid Handling Platform. First, the 96-well HiBiT DNA arrays were diluted 25-fold in Opti-MEM (without serum or phenol red) to a final concentration of 0.0004 μg/μL and 20 μL of the diluted DNAs were transferred into new 96-well plates. Next, promoterless carrier DNA (1 μg/μL) was diluted 25-fold (0.04 μg/μL) and then dispensed into the diluted arrays at 20 μL/well. Following brief mixing, Viafect transfection reagent (Promega) diluted 16-fold into Opti-MEM was dispensed into the plates at 40 μL/well. After mixing by pipetting, plates were incubated for 10 min on the pipetting station deck. The DNA-transfection reagent complexes were then added to plates containing cells. To facilitate the screen, 10 μL of DNA-transfection reagent complexes were added in duplicates to the top 4 and bottom 4 rows, resulting in two identical 48-well arrays per plate. Plates with transfected cells were incubated for 18–20 h at 37 °C/5% CO2. A screen of each tracer across the entire library using two different concentrations requires duplicate plates of transfected cells. Depending on the number of tracers being screened, transfections can be scaled up using the same ratios. The next day, for each tracer, four 20× screening solutions in tracer dilution buffer (Promega) were prepared: two duplicates at final concentration of 20 μM and two duplicates at a final concentration of 2 μM. A competing unmodified compound was added to one of each duplicate at a final concentration of 400 μM. The four resulting solutions were diluted 4-fold in Opti-MEM without serum or phenol red to generate 5× solutions (5 µM and 0.5 µM tracer +/− 100 μM competing compound). To screen the library, a BioTek MultiFlo FX liquid dispenser was used to dispense 22.5 µL of tracer solution to the top 4 rows and 22.5 µL tracer + competing compound solution to the 4 bottom rows. Plates were briefly mixed on an orbital shaker and incubated for 1.5 h at room temperature. […]

RXFP4 = target: T3, RXFP4 (Homo sapiens, UniProt Q8TDU9); experiment: NanoBRET screen HiBiT-RXFP4 in HEK293
T3 construct: purchased Promega (in-house HiBiT-GPCR construct library, NanoBRET)
T3 sequence (Q8TDU9 whole entry): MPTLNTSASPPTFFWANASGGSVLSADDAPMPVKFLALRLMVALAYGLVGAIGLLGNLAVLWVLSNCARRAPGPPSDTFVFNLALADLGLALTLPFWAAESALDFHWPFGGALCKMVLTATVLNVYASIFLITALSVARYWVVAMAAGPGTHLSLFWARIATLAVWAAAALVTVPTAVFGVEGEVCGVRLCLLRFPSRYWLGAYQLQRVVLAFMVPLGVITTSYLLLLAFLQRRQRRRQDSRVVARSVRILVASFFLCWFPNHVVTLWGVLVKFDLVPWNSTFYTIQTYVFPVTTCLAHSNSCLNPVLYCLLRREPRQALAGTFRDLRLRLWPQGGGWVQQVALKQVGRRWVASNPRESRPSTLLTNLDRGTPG
Description: as §1, §2

| SMILES | NanoBRET Fold Response (ADRA2B; ADRA2B, tracer 0.1μM) | NanoBRET Fold Response (ADRA2B; ADRA2B, tracer 1μM) | NanoBRET Fold Response (C5AR2; C5AR2, tracer 0.1μM) | NanoBRET Fold Response (C5AR2; C5AR2, tracer 1μM) | NanoBRET Fold Response (RXFP4; RXFP4, tracer 0.1μM) | NanoBRET Fold Response (RXFP4; RXFP4, tracer 1μM) | also measured |
| --- | --- | --- | --- | --- | --- | --- | --- |
| CCOC(=O)c1cc(C#N)c(N2CCC(C(=O)NS(=O)(=O)Cc3ccccc3/C=C/C(=O)NCCNC(=O)CCc3ccc4n3[B-](F)(F)[N+]3=C(c5ccc[nH]5)C=CC3=C4)CC2)nc1C [AZD1283-1-NB590] |  |  |  |  |  |  | NanoBRET Fold Response (ADRA2B; ADRA2B, 0.1μM): 1.09; NanoBRET Fold Response (ADRA2B; ADRA2B, 1μM): 1.05; NanoBRET Fold Response (C5AR2; C5AR2, 0.1μM): 0.97; NanoBRET Fold Response (C5AR2; C5AR2, 1μM): 1.12; NanoBRET Fold Response (RXFP4; RXFP4, 0.1μM): 1.02; NanoBRET Fold Response (RXFP4; RXFP4, 1μM): 1.09 |
| N#CN/C(=N\CCNC(=O)c1ccc(N)cc1)NCCCOc1cccc(CN2CCCCC2)c1 [Aminopotentidine (unmodified)] |  |  |  |  |  |  | NanoBRET Fold Response (ADRA2B; ADRA2B, other tracers/Aminopotentidine (unmodified), 0.1μM): 1.49; NanoBRET Fold Response (ADRA2B; ADRA2B, other tracers/Aminopotentidine (unmodified), 1μM): 1.60 |
| N#CN=C(NCCCOc1cccc(CN2CCCCC2)c1)NCCNC(=O)CCOCCOCCOCCOCCNC(=O)CCc1ccc2n1[B-](F)(F)[N+]1=C(c3ccc[nH]3)C=CC1=C2 [Aminopotentidine-2-NB590] | 1.12 | 1.11 | 1.06 | 1.03 | 1.02 | 1.02 |  |
| COc1ccc2c(n1)c(CCNC(C)=O)cn2CCNC(=O)CCc1ccc2n1[B-](F)(F)[N+]1=C(c3ccc[nH]3)C=CC1=C2 [Azamelatonin-1-NB590] |  |  |  |  |  |  | NanoBRET Fold Response (ADRA2B; 0.1μM tracer): 1.18; NanoBRET Fold Response (ADRA2B; 1μM tracer): 0.96; NanoBRET Fold Response (C5AR2; 0.1μM tracer): 0.90; NanoBRET Fold Response (C5AR2; 1μM tracer): 0.93; NanoBRET Fold Response (RXFP4; 0.1μM tracer): 0.73; NanoBRET Fold Response (RXFP4; 1μM tracer): 1.04 |
| COc1ccc2[nH]c(-c3ccc(CNC(=O)CCOCCOCCOCCOCCNC(=O)CCc4ccc5n4[B-](F)(F)[N+]4=C(c6ccc[nH]6)C=CC4=C5)cc3)c(CCNC(C)=O)c2n1 [AzomelatoninICO9-2-NB590] |  |  |  |  |  |  | NanoBRET Fold Response (ADRA2B; 0.1μM tracer): 1.35; NanoBRET Fold Response (ADRA2B; 1μM tracer): 1.12; NanoBRET Fold Response (C5AR2; 0.1μM tracer): 1.13; NanoBRET Fold Response (C5AR2; 1μM tracer): 0.89; NanoBRET Fold Response (RXFP4; 0.1μM tracer): 0.94; NanoBRET Fold Response (RXFP4; 1μM tracer): 0.96 |
| O=C(CCOCCOCCOCCOCCNC(=O)CCc1ccc2n1[B-](F)(F)[N+]1=C(c3ccc[nH]3)C=CC1=C2)NCCCN1CCN(C2=Nc3cc(Cl)ccc3Nc3ccccc32)CC1 [Clozapine-a-2-NB590] |  |  |  |  |  |  | NanoBRET Fold Response (ADRA2B; ADRA2B, 0.1μM tracer): 7.79; NanoBRET Fold Response (ADRA2B; ADRA2B, 1μM tracer): 7.79; NanoBRET Fold Response (C5AR2; C5AR2, 0.1μM tracer): 0.93; NanoBRET Fold Response (C5AR2; C5AR2, 1μM tracer): 1.21; NanoBRET Fold Response (RXFP4; RXFP4, 0.1μM tracer): 1.10; NanoBRET Fold Response (RXFP4; RXFP4, 1μM tracer): 1.10 |
| O=C(CCOCCOCCOCCOCCNC(=O)CCc1ccc2n1[B-](F)(F)[N+]1=C(c3ccc[nH]3)C=CC1=C2)NCCCN1CCN(C2=Nc3ccccc3Oc3ccc(Cl)cc32)CC1 [Loxapine-a-2-NB590] | 3.38 | 5.35 | 0.95 | 1.07 | 1.01 | 1.21 |  |
| COc1ccccc1N1CCN(CCCCN2C(=O)c3ccc(CNC(=O)CCOCCOCCOCCOCCNC(=O)CCc4ccc5n4[B-](F)(F)[N+]4=C(c6ccc[nH]6)C=CC4=C5)cc3C2=O)CC1 [NAN-190-2-NB590] | 4.00 | 5.99 | 1.02 |  |  | 0.97 |  |
| COc1ccccc1N1CCN(CCCCN2C(=O)c3ccc(CNC(=O)CCOCCNC(=O)c4ccc(CNC(=O)CCc5ccc6n5[B-](F)(F)[N+]5=C(c7ccc[nH]7)C=CC5=C6)cc4)cc3C2=O)CC1 [NAN-190-3-NB590] | 4.24 | 5.21 | 0.87 | 1.07 | 0.93 | 0.90 |  |
| CC(C)N(CC[C@H](c1ccccc1)c1cc(CCNC(=O)CCOCCOCCOCCOCCNC(=O)CCc2ccc3n2[B-](F)(F)[N+]2=C(c4ccc[nH]4)C=CC2=C3)ccc1O)C(C)C [Tolterodine-2-NB590] | 0.95 | 1.04 | 0.98 | 0.92 | 0.96 | 1.06 |  |
| CC(C)N(CC[C@H](c1ccccc1)c1cc(CCNC(=O)c2ccc(CNC(=O)CCc3ccc4n3[B-](F)(F)[N+]3=C(c5ccc[nH]5)C=CC3=C4)cc2)ccc1O)C(C)C [Tolterodine-BZ-NB590] | 1.04 | 1.13 | 1.05 | 1.08 | 1.08 | 0.98 |  |
| CCCn1c(=O)c2[nH]c(-c3ccc(OCC(=O)NCCNC(=O)CCOCCNC(=O)c4ccc(CNC(=O)CCc5ccc6n5[B-](F)(F)[N+]5=C(c7ccc[nH]7)C=CC5=C6)cc4)cc3)nc2n(CCC)c1=O [XAC-3-NB590] | 0.91 | 0.95 | 1.02 | 1.01 | 1.00 | 0.96 |  |

— PMC8151276, “An Integrated Approach toward NanoBRET Tracers for Analysis of GPCR Ligand Engagement” (Molecules, 2021)
